Data reported in patent US6716582B2 (priority 2000, dated 2004).

Columns and labels:
[1] = tested on: LuxArray 1.04 luxCDABE gene fusions; experiment: LuxArray 1.04 limonene stress in liquid culture; type: cell-based, E. coli; details: for upregulation of gene fusion: 80% saturated limonene
Experimental: Microplates from −80° C. containing the LuxArray 1.04 E. coli strains were thawed and used to inoculate 100 μl LB medium supplemented with 100 μg/ml ampicillin in Costar#3595 flat bottomed 96-well microplates. Following overnight growth at 37° C., the plates were visually examined and any wells with little or no turbidity were recorded. Then these cultures were diluted by transfer of 15 μl to 135 μl LB medium in Costar #3595, flat bottom 96-well microplates and were moderately swirl shaken on an IKA Schuttler MTS 4 shaker at setting 400 for two hrs at 37° C. in a humidified box. Twenty μl of each these actively growing cultures were transferred to the corresponding well in sets of three microplates, one containing 80 μl of LB medium, another containing 80 μl of LB medium saturated with limonene at room temperature, and the third containing 40 μl of LB medium saturated with limonene and 40 μl of LB medium. An initial (zero time) reading was taken using an MLX microplate luminometer (Dynex) pre-warmed to 37° C. Then the plates were placed at 37° C. without shaking. Additional bioluminescent measurements were taken at 45, 90, and 135 minutes. To limit the number of microplates handled each day, LuxArray 1.04 microplates 1 to 5, microplates 6 to 10, microplates 11 to 15, and microplates […] were used on each of four different days.
The data were normalized to correct for growth inhibition caused by limonene on the basis of each individual day that data was collected. The bioluminescence (RLU) of each individual culture for each day of experimentation under each of the three conditions, were added to determine the daily array total RLU. These were used to find a daily normalization factor (DNF) as follows:
DNF=Daily total array signal (time zero, LB control)/Daily total array signal (time x, condition y)
Each measurement from the corresponding day, time point, and condition was multiplied by DNF to yield a normalized signal. The data from wells that were scored to have little or no growth were not used in further analysis. The normalized data were analyzed with GeneSpring (Silicon Genetics) software, which averaged the signal from each of the duplicate cultures for each reporter gene fusion.
Thus, patterns of gene expression from the 80% saturated limonene in LB medium were further examined. […] These lists were examined and gene fusions with very low normalized RLU values (<0.012 RLU) at all conditions were eliminated. […] The designation of “>2×” is given for upregulation while “*” is listed if the expression was less than 2 fold increased. At 45 minutes, the expression of fourteen gene fusions was increased; none of these was increased 3 fold or higher. At 90 minutes, 37 gene fusions were induced; these included all but one of the gene fusions observed at 45 minutes. […] These were fusions of the luxCDABE reporter to the promoter regions of uhpT (3.8×), nirB (3.7×) and narK (3.6×). At 135 minutes, 39 gene fusions were induced, which included 13 fusions not observed at 45 or 90 minutes.

[2] = tested on: uhpT-luxCDABE gene fusion (strain DPD3228); experiment: verification of uhpT-lux upregulation by limonene; type: cell-based, E. coli; details: late response, maximal at highest concentration, detected at 40% or 20% of saturation
Experimental: E. coli strain DPD3228 is identical to lux-a.pk034.b9 the strain containing the uhpT-luxCDABE gene fusion. This strain was grown overnight at 37° C. in LB medium containing 100 μg/ml ampicillin and diluted the following day into LB medium and grown to log phase at 37° C. 20 μl aliquots of this culture were added to 80 μl of LB medium saturated with limonene, to 80 μl of a series of two fold dilutions into LB medium of LB saturated with limonene, and to 80 μl of LB medium. Light production was measured in a Luminoskan Ascent (Labsystems) microplate luminometer at 37° C. […] Similar to the initial LuxArray observations, a late response to the presence of limonene was observed. This response was maximal at the highest concentration of limonene tested, but was also detected when limonene was present at 40% or 20% of saturating amounts in LB medium.

Q: What does the source list for C=C(C)[C@H]1CC=C(C)CC1 [limonene]?
A: upregulation of gene fusion ([1]; katG-lux, 135 minutes): 4.1 ×; upregulation of gene fusion ([1]; narK-lux, 90 minutes): 3.6 ×; upregulation of gene fusion ([1]; nirB-lux, 90 minutes): 3.7 ×; upregulation of gene fusion ([1]; nirB-lux, 135 minutes): 4.1 ×; upregulation of gene fusion ([1]; uhpT-lux, 90 minutes): 3.8 ×; upregulation of gene fusion ([1]; uhpT-lux, 135 minutes): 7.7 ×; upregulation of gene expression ([1]; whole LuxArray 1.04, 40% saturated limonene in LB medium): little to no upregulation; upregulation of bioluminescence [2]: upregulation of bioluminescence from this strain by limonene was confirmed
